Each structure is given as a SMILES string.

This is an account of results in PMC5680195, “Structural basis of small molecule ATPase inhibition of a human mitotic kinesin motor protein” (Scientific Reports, 2017).

One assay deals with T1, KIFC3 (Homo sapiens, UniProt Q9BVG8).
T1 construct: motor domain K443-L770, p28a-LIC (EF442785 is printed beside the vector), E. coli BL21-CodonPlus (DE3)-RIL, HisTrap purified
T1 sequence (Q9BVG8 443-770): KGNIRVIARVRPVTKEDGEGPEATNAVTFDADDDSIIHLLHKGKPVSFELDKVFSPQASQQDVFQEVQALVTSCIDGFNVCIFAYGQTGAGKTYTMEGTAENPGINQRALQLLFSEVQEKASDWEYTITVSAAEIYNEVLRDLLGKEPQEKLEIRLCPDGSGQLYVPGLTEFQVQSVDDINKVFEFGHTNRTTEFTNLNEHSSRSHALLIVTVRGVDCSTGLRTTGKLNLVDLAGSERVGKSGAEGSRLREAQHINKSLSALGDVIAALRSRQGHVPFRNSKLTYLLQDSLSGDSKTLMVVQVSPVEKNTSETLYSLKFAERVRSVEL
Kind of assay: X-ray crystal structure, […] A. Particulars: Mg2+; nucleotide-binding cleft; no added nucleotide stated; pH 7.5; 18 °C.

In another assay the target is T2, KIFC1 (Homo sapiens, UniProt Q9BW19, T368P).
T2 construct: motor domain N307-C663 with PCR-induced T368P (loop L2, disordered), pFBOH-LIC, Hi-Five insect cells, Ni-NTA purified
T2 sequence (Q9BW19 307-663 T368P): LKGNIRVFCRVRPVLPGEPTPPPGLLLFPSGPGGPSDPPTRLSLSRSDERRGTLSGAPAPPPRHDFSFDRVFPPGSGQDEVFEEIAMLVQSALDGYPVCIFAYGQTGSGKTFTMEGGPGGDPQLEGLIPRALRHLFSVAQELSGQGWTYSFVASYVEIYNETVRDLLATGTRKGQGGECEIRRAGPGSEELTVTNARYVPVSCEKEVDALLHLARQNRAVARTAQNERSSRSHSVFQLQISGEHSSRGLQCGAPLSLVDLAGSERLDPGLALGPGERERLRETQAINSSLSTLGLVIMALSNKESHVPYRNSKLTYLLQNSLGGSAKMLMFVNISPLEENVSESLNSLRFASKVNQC
Kind of assay: X-ray crystal structure, […] A. Particulars: Mg2+; nucleotide-binding cleft; 5-fold molar excess Mg-ADP added; pH 7.5; 18 °C.

Consider `Nc1ncnc2c1ncn2[C@@H]1O[C@H](COP(=O)(O)OP(=O)(O)O)[C@@H](O)[C@H]1O` [ADP], for which, at KIFC3, the “X-ray crystal structure, 1.85 A” value is “Both proteins were crystallized bound to Mg-ADP and are reported here for the first time”. Moreover, the “X-ray crystal structure, 2.25 A” value on KIFC1 is “Both proteins were crystallized bound to Mg-ADP and are reported here for the first time”.
